# According to PubChem BioAssay (NCI):
#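 The compound was tested at five concentrations on cells cultured in 96-well plates, with a 48-hour exposure period. GI50 is the concentration that inhibits growth by half. The concentration for full growth arrest is given as TGI.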
# Assays:
# Assay in all cases: DTP human tumour cell line panel, 48 h
# [1] = test system: OVCAR-3 ovarian
# [2] = test system: SNB-19 CNS
# [3] = test system: BT-549 breast
# [4] = test system: A498 renal
# [5] = test system: UACC-62 melanoma
# [6] = test system: NCI-H226 lung
# [7] = test system: HCT-15 colon
# [8] = test system: 786-0 renal
# [9] = test system: SF-539 CNS
# [10] = test system: CAKI-1 renal
# [11] = test system: SN12C renal
# [12] = test system: COLO 205 colon
# [13] = test system: SK-MEL-5 melanoma
# [14] = test system: HCT-116 colon
# [15] = test system: M14 melanoma
# [16] = test system: IGROV1 ovarian
# [17] = test system: MALME-3M melanoma
# [18] = test system: KM12 colon
# [19] = test system: NCI/ADR-RES ovarian
# [20] = test system: SK-MEL-28 melanoma
# [21] = test system: A549 NSCLC
# [22] = test system: HCC-2998 colon
# [23] = test system: NCI-H460 lung
# [24] = test system: UACC-257 melanoma
# [25] = test system: ACHN renal
# [26] = test system: HT29 colon
# [27] = test system: K-562 leukemia
# [28] = test system: OVCAR-8 ovarian
# [29] = test system: RPMI-8226 leukemia
# [30] = test system: OVCAR-5 ovarian
# [31] = test system: CCRF-CEM leukemia
# [32] = test system: HS 578T breast
# [33] = test system: HL-60(TB) leukemia
# [34] = test system: MDA-MB-231 breast
# [35] = test system: SK-OV-3 ovarian
# [36] = test system: OVCAR-4 ovarian
# [37] = test system: LOX IMVI melanoma
# [38] = test system: HOP-92 NSCLC
# [39] = test system: TK-10 renal
# [40] = test system: MDA-MB-435
# [41] = test system: SK-MEL-2 melanoma
# [42] = test system: MOLT-4 leukemia
# [43] = test system: PC-3 prostate
# [44] = test system: U251 CNS
# [45] = test system: NCI-H23 lung
# [46] = test system: MCF7 breast
# [47] = test system: SW-620 colon
# [48] = test system: T-47D breast
# [49] = test system: SNB-75 CNS
# [50] = test system: HOP-62 NSCLC
# [51] = test system: DU-145 prostate
# [52] = test system: SF-268 CNS
# [53] = test system: UO-31 renal
# [54] = test system: SR leukemia
# [55] = test system: RXF 393 renal
smiles,measurement,setting,value
C/C(O)=C(\C#N)C(=O)Nc1ccc(C(F)(F)F)cc1,GI50,[1],37 µM
same,TGI,[1],> 100 µM
same,GI50,[2],24.5 µM
same,TGI,[2],> 100 µM
same,GI50,[3],51.7 µM
same,TGI,[3],> 100 µM
same,GI50,[4],1.36 µM
same,TGI,[4],52.9 µM
same,GI50,[5],15.6 µM
same,TGI,[5],> 100 µM
same,GI50,[6],98 µM
same,TGI,[6],> 100 µM
same,GI50,[7],5.96 µM
same,TGI,[7],> 100 µM
same,GI50,[8],34.3 µM
same,TGI,[8],> 100 µM
same,GI50,[9],16 µM
same,TGI,[9],> 100 µM
same,GI50,[10],5.46 µM
same,TGI,[10],> 100 µM
same,GI50,[11],29.1 µM
same,TGI,[11],> 100 µM
same,GI50,[12],47.3 µM
same,TGI,[12],> 100 µM
same,GI50,[13],15.9 µM
same,TGI,[13],> 100 µM
same,GI50,[14],7.5 µM
same,TGI,[14],> 100 µM
same,GI50,[15],52.5 µM
same,TGI,[15],> 100 µM
same,GI50,[16],28.4 µM
same,TGI,[16],> 100 µM
same,GI50,[17],62.8 µM
same,TGI,[17],> 100 µM
same,GI50,[18],23.9 µM
same,TGI,[18],> 100 µM
same,GI50,[19],21.4 µM
same,TGI,[19],> 100 µM
same,GI50,[20],69.5 µM
same,TGI,[20],> 100 µM
same,GI50,[21],26.5 µM
same,TGI,[21],> 100 µM
same,GI50,[22],45.2 µM
same,TGI,[22],> 100 µM
same,GI50,[23],8.92 µM
same,TGI,[23],> 100 µM
same,GI50,[24],> 100 µM
same,TGI,[24],> 100 µM
same,GI50,[25],45.7 µM
same,TGI,[25],> 100 µM
same,GI50,[26],44.6 µM
same,TGI,[26],> 100 µM
same,GI50,[27],8.13 µM
same,TGI,[27],> 100 µM
same,GI50,[28],13.5 µM
same,TGI,[28],> 100 µM
same,GI50,[29],24.8 µM
same,TGI,[29],> 100 µM
same,GI50,[30],> 100 µM
same,TGI,[30],> 100 µM
same,GI50,[31],18.5 µM
same,TGI,[31],> 100 µM
same,GI50,[32],39.1 µM
same,TGI,[32],> 100 µM
same,GI50,[33],64.3 µM
same,TGI,[33],> 100 µM
same,GI50,[34],26.3 µM
same,TGI,[34],> 100 µM
same,GI50,[35],94.5 µM
same,TGI,[35],> 100 µM
same,GI50,[36],91 µM
same,TGI,[36],> 100 µM
same,GI50,[37],8.21 µM
same,TGI,[37],> 100 µM
same,GI50,[38],13.4 µM
same,TGI,[38],> 100 µM
same,GI50,[39],> 100 µM
same,TGI,[39],> 100 µM
same,GI50,[40],37.1 µM
same,TGI,[40],> 100 µM
same,GI50,[41],73.2 µM
same,TGI,[41],> 100 µM
same,GI50,[42],67.9 µM
same,TGI,[42],> 100 µM
same,GI50,[43],7.97 µM
same,TGI,[43],> 100 µM
same,GI50,[44],5.34 µM
same,TGI,[44],> 100 µM
same,GI50,[45],73.7 µM
same,TGI,[45],> 100 µM
same,GI50,[46],38.5 µM
same,TGI,[46],> 100 µM
same,GI50,[47],36.4 µM
same,TGI,[47],> 100 µM
same,GI50,[48],92 µM
same,TGI,[48],> 100 µM
same,GI50,[49],> 100 µM
same,TGI,[49],> 100 µM
same,GI50,[50],77.9 µM
same,TGI,[50],> 100 µM
same,GI50,[51],46.7 µM
same,TGI,[51],> 100 µM
same,GI50,[52],15 µM
same,TGI,[52],> 100 µM
same,GI50,[53],18.1 µM
same,TGI,[53],> 100 µM
same,GI50,[54],> 100 µM
same,TGI,[54],> 100 µM
same,GI50,[55],18.6 µM
same,TGI,[55],> 100 µM
